Experimental data reported in US6844435B2, “Heterocyclic compounds useful as inhibitors of tyrosine kinases” (Boehringer Ingelheim Pharmaceuticals, Inc., priority 2000, dated 2005).

Compound	melting point
Cn1c(Nc2c(Cl)cccc2Cl)nc2ccc3nc(C(=O)NCCO)[nH]c(=O)c3c21 [Example 41]	265 to 268 °C
C/C(=C\c1cc([N+](=O)[O-])cc([N+](=O)[O-])c1)c1nc2ccc3nc(Nc4c(Cl)cccc4Cl)n(C)c3c2c(=O)[nH]1	315 to 317 °C (dec.)
CNc1nc2ccc3nc(Nc4c(Cl)cccc4Cl)n(C)c3c2c(=O)[nH]1 [Example 62]	198 to 204 °C
Cn1c(Nc2c(Cl)cccc2Cl)nc2ccc3nc(-c4ccccn4)[nH]c(=O)c3c21 [Example 29]	> 300 °C
Cn1c(Nc2c(Cl)cccc2Cl)nc2ccc3nc(-c4cccc([N+](=O)[O-])c4)[nH]c(=O)c3c21 [Example 18]	> 300 °C
C/C(=C\c1ccccc1C#N)c1nc2ccc3nc(Nc4c(Cl)cccc4Cl)n(C)c3c2c(=O)[nH]1 [Example 102]	284 to 288 °C
Cn1c(Nc2c(Cl)cccc2Cl)nc2ccc3nc(-c4cc5ccccc5o4)[nH]c(=O)c3c21 [Example 39]	> 300 °C
Cn1c(Nc2c(Cl)cccc2Cl)nc2ccc3nc(-c4ccccc4)[nH]c(=O)c3c21 [Example 7, 2-(2,6-Dichlorophenylamino)-1-methyl-7-phenyl-1,8-dihydro-9H-imidazo[4,5-f]quinazoline-9-one]	> 300 °C
Cn1c(Nc2c(Cl)cccc2Cl)nc2ccc3nc(-c4ccc(-c5ccccc5[N+](=O)[O-])o4)[nH]c(=O)c3c21 [Example 55]	289 to 292 °C
Cn1c(Nc2c(Cl)cccc2Cl)nc2ccc3nc(-c4csc([C@H]5CCCN5)n4)[nH]c(=O)c3c21 [Example 98]	290 °C (dec.)
Cn1c(Nc2c(Cl)cccc2Cl)nc2ccc3nc(C(N)=O)[nH]c(=O)c3c21 [Example 27]	> 300 °C
Cn1c(Nc2c(Cl)cccc2Cl)nc2ccc3nc(-c4cnc(-c5ccccc5)o4)[nH]c(=O)c3c21 [Example 26]	> 290 °C
CC(C)c1nc2ccc3nc(Nc4c(Cl)cccc4Cl)n(C)c3c2c(=O)[nH]1 [Example 49]	279 °C (dec.)
CCOC(=O)c1nc2ccc3nc(Nc4c(Cl)cccc4Cl)n(C)c3c2c(=O)[nH]1 [Example 37]	275 to 277 °C
Cn1c(Nc2c(Cl)cccc2Cl)nc2ccc3nc(C4=CCNC4)[nH]c(=O)c3c21 [Example 86]	240 to 241 °C (dec.)
Cc1ccoc1-c1nc2ccc3nc(Nc4c(Cl)cccc4Cl)n(C)c3c2c(=O)[nH]1 [Example 58]	304 to 310 °C (dec.)
C/C=C(\C)c1nc2ccc3nc(Nc4c(Cl)cccc4Cl)n(C)c3c2c(=O)[nH]1 [Example 45]	278 °C (dec.)
Cn1c(Nc2c(Cl)cccc2Cl)nc2ccc3nc(-c4csc([C@@H]5CCCC[C@H]5N)n4)[nH]c(=O)c3c21 [Example 77]	295 to 300 °C (dec.)
Cn1c(Nc2c(Cl)cccc2Cl)nc2ccc3nc(-c4cccnc4)[nH]c(=O)c3c21 [Example 30]	> 300 °C
Cn1c(Nc2c(Cl)cccc2Cl)nc2ccc3nc(-c4csc(-c5cccc(N)c5)n4)[nH]c(=O)c3c21 [Example 36]	240 °C (dec.)
CC(=O)C1CC=C(c2nc3ccc4nc(Nc5c(Cl)cccc5Cl)n(C)c4c3c(=O)[nH]2)C1 (stereo not drawn) [Example 72]	> 215 °C (dec.)
Cn1c(Nc2c(Cl)cccc2Cl)nc2ccc3nc(C4=CC5CNCC5C4)[nH]c(=O)c3c21 (stereo not drawn) [Example 95]	265 °C (dec.)

Compound	melting point
CCc1nc2ccc3nc(Nc4c(Cl)cccc4Cl)n(C)c3c2c(=O)[nH]1 [Example 53]	> 300 °C
Cc1ncc(-c2nc3ccc4nc(Nc5c(Cl)cccc5Cl)n(C)c4c3c(=O)[nH]2)o1 [Example 46]	> 300 °C
C=Cc1nc2ccc3nc(Nc4c(Cl)cccc4Cl)n(C)c3c2c(=O)[nH]1 [Example 21]	278 to 284 °C (dec.)
Cn1c(Nc2c(Cl)cccc2Cl)nc2ccc3nc(-c4ccc(Br)o4)[nH]c(=O)c3c21 [Example 57]	280 to 283 °C
Cn1c(Nc2c(Cl)cccc2Cl)nc2ccc3nc(C4=CC(=O)CC4)[nH]c(=O)c3c21 [Example 81]	> 300 °C
Cn1c(Nc2c(Cl)cccc2Cl)nc2ccc3nc(C4=CCCC4)[nH]c(=O)c3c21 [Example 35]	295 °C (dec.)
Cn1c(Nc2c(Cl)cccc2Cl)nc2ccc3nc(-c4cccc(S(=O)(=O)N5CCN(C(=O)OC(C)(C)C)CC5)c4)[nH]c(=O)c3c21 [Example 67]	189 °C
CC(C)=C(C)c1nc2ccc3nc(Nc4c(Cl)cccc4Cl)n(C)c3c2c(=O)[nH]1 [Example 63]	> 300 °C
Cn1c(Nc2c(Cl)cccc2Cl)nc2ccc3nc(-c4cccc(S(=O)(=O)N5CCN(C(=N)N)CC5)c4)[nH]c(=O)c3c21 [Example 90]	215 °C
Cn1c(Nc2c(Cl)cccc2Cl)nc2ccc3nc(-c4csc(-c5cccc([N+](=O)[O-])c5)n4)[nH]c(=O)c3c21 [Example 24]	> 300 °C
Cn1c(Nc2c(Cl)cccc2Cl)nc2ccc3nc(CC4=CCCC4)[nH]c(=O)c3c21 [Example 40]	258 °C (dec.)
Cn1c(Nc2c(Cl)cccc2Cl)nc2ccc3nc(-c4ccoc4)[nH]c(=O)c3c21 [Example 8, 2-(2,6-Dichlorophenylamino)-1-methyl-7-furan-3-yl-1,8-dihydro-9H-imidazo[4,5-f]quinazoline-9-one]	> 300 °C
CN1CCC=C(c2nc3ccc4nc(Nc5c(Cl)cccc5Cl)n(C)c4c3c(=O)[nH]2)C1 [Example 54]	255 °C
C/C(=C\c1ccccc1[N+](=O)[O-])c1nc2ccc3nc(Nc4c(Cl)cccc4Cl)n(C)c3c2c(=O)[nH]1 [Example 71]	290 to 292 °C
C=C(C)c1nc2ccc3nc(Nc4c(Cl)cccc4Cl)n(C)c3c2c(=O)[nH]1 [Example 33]	> 300 °C
CN1c2ccc3nc(Nc4c(Cl)cccc4Cl)n(C)c3c2C(=O)NC1c1ccccc1 (stereo not drawn) [Example 88]	228 to 230 °C
Cn1c(Nc2c(Cl)cccc2Cl)nc2ccc3nc(C(=O)O)[nH]c(=O)c3c21 [Example 42]	> 300 °C
C/C(=C\c1cccc(NC(=N)N)c1)c1nc2ccc3nc(Nc4c(Cl)cccc4Cl)n(C)c3c2c(=O)[nH]1 [Example 101]	170 °C (dec.)
Cn1c(Nc2c(Cl)cccc2Cl)nc2ccc3nc(C(=O)N4CCCC4)[nH]c(=O)c3c21 [Example 52]	295 °C (dec.)
CCCCCc1nc2ccc3nc(Nc4c(Cl)cccc4Cl)n(C)c3c2c(=O)[nH]1 [Example 64]	257 to 260 °C
Cn1c(Nc2c(Cl)cccc2Cl)nc2ccc3nc(-c4nc(-c5ccc(OC(F)(F)F)cc5)no4)[nH]c(=O)c3c21 [Example 32]	> 300 °C
C/C(=C\c1cccc(C#N)c1)c1nc2ccc3nc(Nc4c(Cl)cccc4Cl)n(C)c3c2c(=O)[nH]1 [Example 70]	288 to 290 °C

Compound	melting point
Cn1c(Nc2c(Cl)cccc2Cl)nc2ccc3nc(-c4csc([C@H]5CCCN5C(=O)OCc5ccccc5)n4)[nH]c(=O)c3c21 [Example 73]	209 °C
C/C(=C\c1cc(N)cc(N)c1)c1nc2ccc3nc(Nc4c(Cl)cccc4Cl)n(C)c3c2c(=O)[nH]1 [Example 99]	195 to 200 °C (dec.)
Cn1c(Nc2c(Cl)cccc2Cl)nc2ccc3nc(C4CC4)[nH]c(=O)c3c21 [Example 59]	> 300 °C
Cn1c(Nc2c(Cl)cccc2Cl)nc2ccc3nc(-c4csc(CC5CCCNC5)n4)[nH]c(=O)c3c21 (stereo not drawn) [Example 78]	161 to 166 °C
Cn1c(Nc2c(Cl)cccc2Cl)nc2ccc3nc(-c4csc([C@@H]5CCCC[C@H]5NC(=O)OCc5ccccc5)n4)[nH]c(=O)c3c21 [Example 75]	163 to 169 °C
Cn1c(Nc2c(Cl)cccc2Cl)nc2ccc3nc(-c4ccc(S(=O)(=O)N5CCNCC5)cc4)[nH]c(=O)c3c21 [Example 100]	246 °C
Cn1c(Nc2c(Cl)cccc2Cl)nc2ccc3nc(C4=CC(N5CCNCC5)CC4)[nH]c(=O)c3c21 (stereo not drawn) [Example 48]	173 to 174 °C
Cn1c(Nc2c(Cl)cccc2Cl)nc2ccc3nc(C4=CCN(C(=O)OC(C)(C)C)C4)[nH]c(=O)c3c21 [Example 83]	206 to 208 °C
Cc1ccccc1-c1nc2ccc3nc(Nc4c(Cl)cccc4Cl)n(C)c3c2c(=O)[nH]1 [Example 38]	> 300 °C
[H]/N=C(/N)c1cccc(/C=C(\C)c2nc3ccc4nc(Nc5c(Cl)cccc5Cl)n(C)c4c3c(=O)[nH]2)c1 [Example 92]	> 300 °C
Cc1nc(-c2nc3ccc4nc(Nc5c(Cl)cccc5Cl)n(C)c4c3c(=O)[nH]2)cs1 [Example 79]	295 °C (dec.)
C/C(=C\c1ccccc1N)c1nc2ccc3nc(Nc4c(Cl)cccc4Cl)n(C)c3c2c(=O)[nH]1 [Example 80]	310 to 313 °C
Cn1c(Nc2c(Cl)cccc2Cl)nc2ccc3nc(C4CCCC4)[nH]c(=O)c3c21 [Example 50]	283 to 284 °C
Cn1c(Nc2c(Cl)cccc2Cl)nc2ccc3nc(-c4cccs4)[nH]c(=O)c3c21 [Example 22]	> 300 °C
Cn1c(Nc2c(Cl)cccc2Cl)nc2ccc3nc(-c4cccc(S(=O)(=O)N5CCN(C(=O)CO)CC5)c4)[nH]c(=O)c3c21 [Example 91]	> 300 °C
Cn1c(Nc2c(Cl)cccc2Cl)nc2ccc3nc(-c4scc(S(C)(=O)=O)c4Cl)[nH]c(=O)c3c21 [Example 23]	280 °C
Cn1c(Nc2c(Cl)cccc2Cl)nc2ccc3nc(C(=O)c4c[nH]c5ccccc45)[nH]c(=O)c3c21 [Example 47]	> 300 °C
CCNC(=O)Nc1cccc(-c2nc3ccc4nc(Nc5c(Cl)cccc5Cl)n(C)c4c3c(=O)[nH]2)c1 [Example 20]	251 °C (dec.)
CCCCCC1NC(=O)c2c(ccc3nc(Nc4c(Cl)cccc4Cl)n(C)c23)N1C (stereo not drawn) [Example 87]	126 to 128 °C
Cn1c(Nc2c(Cl)cccc2Cl)nc2ccc3nc(C(=O)c4ccccc4)[nH]c(=O)c3c21 [Example 60]	280 °C (dec.)
Cn1c(Nc2c(Cl)cccc2Cl)nc2ccc3nc(-c4csc(CC5CCCN(C(=O)OCc6ccccc6)C5)n4)[nH]c(=O)c3c21 (stereo not drawn) [Example 76]	155 to 160 °C
CN1CCN(S(=O)(=O)c2cccc(-c3nc4ccc5nc(Nc6c(Cl)cccc6Cl)n(C)c5c4c(=O)[nH]3)c2)CC1 [Example 61]	215 °C (dec.)
